Assays:
Format in all cases: cell-based
[1] = test system: human muscular skeletal cells (hSKMC); assay: Prevention of TNF-α induced muscle mass loss in human skeletal muscle cells, immunofluorescence (Example 9); settings: 0.5 mg/ml with 20 ng/ml TNFα, 48 hours, myotube diameter threshold 20 μm
Description: Myosin heavy chain (MHyC) is used as a morphologic marker of differentiated myotubes allowing the measurement of their diameter, and therefore knowing their degree of mass loss. Tumor necrosis factor α (TNF-α) has been described in the literature as a muscle mass loss inductor.
Muscle mass loss prevention by the peptides of the invention is evaluated by an immunofluorescence assay. The aim of this study is to investigate the capacity of peptide candidates to prevent muscular mass loss in presence of TNF-α in human muscular skeletal cells (hSKMC).
hSKMC (Tebu-Bio) are seeded in 96-well plates at a density of 1.5×10^4 cells/well in Skeletal Muscle Cell Growth Medium (Promocell). After 24 hours incubation, medium is replaced with Skeletal Muscle Cell Differentiation Medium (Promocell) and cells are differentiated for 6 days. After this, fresh differentiation medium with 0.5 mg/ml of test items and 20 ng/ml of TNFα (Sigma) is added. Treatment is continued for 48 hours and non-treated cells are used as basal control and 20 ng/ml TNFα treated cells are used as a muscle mass loss control. […] Finally, myotube diameter is determined by imaging MHyC staining by Operetta™ (Perkin Elmer). Percentage of mass loss is automatically calculated with Harmony™ (Perkin Elmer) software by classifying myotubes according to their diameter using an atrophic threshold of 20 μm. […]

[2] = test system: Muscle bind like protein 1 (MBNL1); assay: MBNL1 quantification in human dermal fibroblasts by immunofluorescence (Example 8); settings: HDF, 1, 0.5 and 0.01 mg/ml, 24 hours, nuclear fluorescence normalized by nuclei
Description: MBNL1 induction by the peptides of the invention is evaluated by an Immunofluorescence assay. The aim of this study is to investigate the capacity of peptide candidates to increase MBNL1 in human dermal fibroblasts (HDF).
HDF (Cascade) are seeded in 96-well plates at a density of 8×10^3 cells/well in Fibroblast Growth Medium (Promocell). After 48 hours incubation, medium is removed and fresh medium with 1, 0.5 and 0.01 mg/ml of test items is added. Treatment is continued for 24 hours and non-treated cells are used as basal control. After 24 hours of treatment, an immunofluorescence is performed. Cells are fixed 15 minutes with 4% Paraformaldehide (Sigma), permeated 15 minutes with 1% Triton X-100 (Sigma) and then blocked with 5% Bovine Serum Albumin (Sigma). Next, primary antibody Anti-MBNL1 Rabbit (Sigma) is added and incubated for 2 hours. After that, secondary antibody Alexa Fluor™ 488 goat anti-rabbit IgG (Life Technologies) is added and incubated for 1 hour. To stain nuclei, Hoechst (Life Technologies) is added and incubated for 10 minutes. Finally, MBNL1 cell nuclei fluorescence intensity and nuclei number are measured by Operetta™ (Perkin Elmer). Fluorescence is normalized by cell nuclei and results are represented respect to basal control.

[3] = test system: human muscular skeletal cells (hSKMC); assay: Alleviation (correction) of TNF-α induced muscle mass loss in human skeletal muscle cells, immunofluorescence (Example 10); settings: 0.01 mg/ml after 24 hours of 20 ng/ml TNFα, myotube diameter threshold 20 μm
Description: Muscle mass loss correction by the peptides of the invention is evaluated by an immunofluorescence assay. The aim of this study is to investigate the capacity of peptide candidates to correct muscular mass loss after treatment with TNF-α in human muscular skeletal cells (hSKMC). Myosin heavy chain (MHyC) is used as a morphologic marker of differentiated myotubes allowing the measurement of their diameter, and therefore knowing their degree of mass loss. Tumor necrosis factor α (TNF-α) has been described in the literature as a muscle mass loss inductor.
hSKMC (Tebu-Bio) are seeded in 96-well plates at a density of 1.5×10^4 cells/well in Skeletal Muscle Cell Growth Medium (Promocell). After 24 hours incubation, medium is replaced with Skeletal Muscle Cell Differentiation Medium (Promocell) and cells are differentiated for 6 days. After this, muscular cells mass loss is induced by adding fresh differentiation medium with 20 ng/ml TNFα (Sigma). Non-TNFα treated cells are used as basal mass loss control (BC). […] After 24 hours after the second treatment, immunofluorescence is determined. […] Finally, myotube diameter is determined by imaging MHyC staining by Operetta™ (Perkin Elmer). Percentage of mass loss is automatically calculated with Harmony™ (Perkin Elmer) software by classifying myotubes according to their diameter using a mass loss threshold of 20 μm.

| Substance | muscle mass loss compared to TNF-α treatment (prevention) [1] | MBNL1 levels compared to the basal control [2] | muscle mass loss compared to basal control treated with TNF-α (correction) [3] |
| --- | --- | --- | --- |
| Ac-Asp-Val-Tyr-Lys-NH2 (Ac-DVYK-NH2) [PEP1] | prevent mass loss | increase MBNL1 levels | correct (i.e., reduces) mass loss |
| H-Ala-Leu-Lys-Pro-Asn-Thr-NH2 (H-ALKPNT-NH2) [PEP2] | prevent mass loss | increase MBNL1 levels | correct (i.e., reduces) mass loss |

Reference: patent US12419824B2, “Compounds useful for the treatment and/or care of the skin, hair, nails and/or mucous membranes” (Lubrizol Advanced Materials, Inc., priority 2019, dated 2025)
